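Five compound concentrations were applied to cells in 96-well plates for 48 hours; endpoints were derived by simple linear interpolation of the resulting dose-response curve. GI50: concentration for 50% inhibition of growth.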 Activity calls are given as the source filed them. Rule as the data show it: active = GI50 up to about 1.1 µM and inactive = higher.
Assays:
Assay in all cases: growth of human tumour cells (NCI), 48 h
UACC-257 = tested on: UACC-257
NCI-H460 = tested on: NCI-H460
DU-145 = tested on: DU-145
KM12 = tested on: KM12
TK-10 = tested on: TK-10
SW-620 = tested on: SW-620
MDA-MB-435 = tested on: MDA-MB-435
COLO 205 = tested on: COLO 205
OVCAR-8 = tested on: OVCAR-8
RPMI-8226 = tested on: RPMI-8226
IGROV-1 = tested on: IGROV-1
NCI-H23 = tested on: NCI-H23
SF-295 = tested on: SF-295
HOP-62 = tested on: HOP-62
BT-549 = tested on: BT-549
SNB-19 = tested on: SNB-19
RXF 393 = tested on: RXF 393
Malme-3M = tested on: Malme-3M
SF-268 = tested on: SF-268
MDA-MB-231 = tested on: MDA-MB-231

| Compound | GI50 (UACC-257) | GI50 (NCI-H460) | GI50 (DU-145) | GI50 (KM12) | GI50 (TK-10) | GI50 (SW-620) | GI50 (MDA-MB-435) | GI50 (COLO 205) | GI50 (OVCAR-8) | GI50 (RPMI-8226) | GI50 (IGROV-1) | GI50 (NCI-H23) | GI50 (SF-295) | GI50 (HOP-62) | GI50 (BT-549) | GI50 (SNB-19) | GI50 (RXF 393) | GI50 (Malme-3M) | GI50 (SF-268) | GI50 (MDA-MB-231) |
| --- | --- | --- | --- | --- | --- | --- | --- | --- | --- | --- | --- | --- | --- | --- | --- | --- | --- | --- | --- | --- |
| COC(CO[Si](C)(C)N[Si](C)(C)OCC(OC)c1ccccc1)c1ccccc1 (stereo not drawn) | > 100 µM (inactive) | > 100 µM (inactive) | > 100 µM (inactive) | > 100 µM (inactive) | > 100 µM (inactive) | > 100 µM (inactive) | > 100 µM (inactive) | > 100 µM (inactive) | > 100 µM (inactive) | > 100 µM (inactive) | > 100 µM (inactive) | > 100 µM (inactive) | > 100 µM (inactive) | > 100 µM (inactive) | > 100 µM (inactive) | > 100 µM (inactive) | > 100 µM (inactive) | – | – | – |
| Cc1ccc(C(=O)N2CCN(C(=O)c3ccc(C)cc3)c3ccccc32)cc1 | 4.56 µM (inactive) | 4.14 µM (inactive) | 3.35 µM (inactive) | 3.29 µM (inactive) | 10 µM (inactive) | 2.93 µM (inactive) | – | 3.39 µM (inactive) | 6.25 µM (inactive) | 3.03 µM (inactive) | 4.91 µM (inactive) | 4.52 µM (inactive) | 3.09 µM (inactive) | 6.43 µM (inactive) | > 100 µM (inactive) | 5.77 µM (inactive) | 2.24 µM (inactive) | 2.84 µM (inactive) | 6.85 µM (inactive) | 23.7 µM (inactive) |
| C=C1C(=O)CC2C1CC(=O)/C(C)=C/CCC(C)(O)C2O (stereo not drawn) | 0.708 µM (active) | 2.38 µM (inactive) | 8.77 µM (inactive) | 13.8 µM (inactive) | 0.562 µM (active) | 7.26 µM (inactive) | 6.55 µM (inactive) | 2.03 µM (inactive) | 4.3 µM (inactive) | 1.41 µM (inactive) | 10.6 µM (inactive) | 8.17 µM (inactive) | 27.4 µM (inactive) | 26.7 µM (inactive) | – | > 54.3 µM (inactive) | 6.67 µM (inactive) | 1.36 µM (inactive) | 18.1 µM (inactive) | 1.07 µM (active) |
| CC(C)c1cc(Cl)nc(Cl)n1 | > 100 µM (inactive) | > 100 µM (inactive) | > 100 µM (inactive) | > 100 µM (inactive) | > 100 µM (inactive) | > 100 µM (inactive) | > 100 µM (inactive) | > 100 µM (inactive) | > 100 µM (inactive) | > 100 µM (inactive) | > 100 µM (inactive) | > 100 µM (inactive) | > 100 µM (inactive) | – | > 100 µM (inactive) | > 100 µM (inactive) | > 100 µM (inactive) | – | > 100 µM (inactive) | > 100 µM (inactive) |
| Cc1ccc(C(=O)CC(O)(C(F)(F)F)C(F)(F)F)cc1[N+](=O)[O-] | 3.21 µM (inactive) | 5.78 µM (inactive) | 6.22 µM (inactive) | 2.19 µM (inactive) | 17.6 µM (inactive) | 16.8 µM (inactive) | 8.41 µM (inactive) | 16.8 µM (inactive) | 10.2 µM (inactive) | 12.6 µM (inactive) | 5.05 µM (inactive) | 9.29 µM (inactive) | 7 µM (inactive) | 15.2 µM (inactive) | – | 9.06 µM (inactive) | 13.8 µM (inactive) | 16.3 µM (inactive) | 9.42 µM (inactive) | 7.55 µM (inactive) |
| c1ccc([P+](CCSCCSCC[P+](c2ccccc2)(c2ccccc2)c2ccccc2)(c2ccccc2)c2ccccc2)cc1 | > 100 µM (inactive) | > 100 µM (inactive) | > 100 µM (inactive) | > 100 µM (inactive) | > 100 µM (inactive) | > 100 µM (inactive) | > 100 µM (inactive) | > 100 µM (inactive) | > 100 µM (inactive) | – | > 100 µM (inactive) | > 100 µM (inactive) | 33 µM (inactive) | > 100 µM (inactive) | > 100 µM (inactive) | > 100 µM (inactive) | > 100 µM (inactive) | – | > 100 µM (inactive) | > 100 µM (inactive) |
| O=P1(c2ccccc2)c2ccccc2-c2ccccc21 | > 100 µM (inactive) | – | > 100 µM (inactive) | > 100 µM (inactive) | > 100 µM (inactive) | > 100 µM (inactive) | > 100 µM (inactive) | > 100 µM (inactive) | > 100 µM (inactive) | 74.1 µM (inactive) | > 100 µM (inactive) | > 100 µM (inactive) | 57.8 µM (inactive) | > 100 µM (inactive) | 65.2 µM (inactive) | > 100 µM (inactive) | 93.8 µM (inactive) | – | > 100 µM (inactive) | > 100 µM (inactive) |

Reference: ChEMBL document CHEMBL1201862, “PubChem BioAssay data set” (2004)
